Tests used:
[1] = tested on: DIM resistant L. donovani axenic amastigotes; test: Cell viability assay, DIM resistant axenic amastigotes; type: cell-based; conditions: Leishmania donovani, 12 h, read-out: growth inhibited
Description: L. donovani strain AG83 and DIM resistant parasite DR50 promastigotes were grown at 22°C in M199 liquid media supplemented with 10% FBS as described. Axenic amastigotes were cultured in modified M199 medium (pH 5.3) supplemented with 10 mM sodium succinate, 40 mM HEPES and 25% FCS and maintained at 37°C with 5% CO2.The effect of drugs on the viability of Leishmania parasites was determined by direct microscopic counting using light microscope (40× objective) in a haemocytometer. The cells at the exponential phase were collected and transferred into 24-well plate (3.5×10^6 cells per well). The cells were then incubated for 12 h in the presence of various concentrations of DIM, DPDIM, DMDIM and DMODIM (1, 5, 10, 20 and 50 µM). For other experiments, 10^4 cells were taken and grown in presence of the respective derivatives for a period of 30 days. For each 5 day interval, a small amount of aliquots were taken out. After incubation the cells were centrifuged and cell pellet was washed with PBS (1×) twice and finally suspended in 1 ml PBS (1×). Fifty µl of aliquot was taken, mixed with 0.4% trypan blue solution and incubated for 3 min at 22°C. One drop of the mixture was transferred to haemocytometer and the clear (live) and blue (dead) cells were counted. The total number of viable cells in aliquot was calculated by multiplying the total number of viable cells by 2 (the dilution factor for trypan blue). […] Percentages of viable cells were calculated using the formula: [drawing 1]
Figure 3 Effectiveness of clearance of internalized L. donovani (AG83) from in vitro infected mouse M [drawing 3] . […] Cells were fixed, stained with Giemsa and counted under bright field microscope. […] Experiments were carried out for three times and representative results are the mean ± S.D. (B) Growth of DIM resistant L. donovani axenic amastigotes were monitored in presence of increasing concentrations (2, 5, 10, 20 and 50 µM) of DIM, DPDIM, DMDIM and DMODIM for 12 h. […] Growth of the parasites treated with the compounds was expressed as percentage of the viable promastigotes compared with that of control. […]

[2] = tested on: LdTOP1LS; test: Equilibrium (duplex oligonucleotide) cleavage assay, wild type enzyme; type: biochemical, Leishmania donovani; conditions: 20 µM, with respect to cleavable complex formed without drug with wild type enzyme
Description: The 25-mer oligonucleotide 1 (5′-GAAAAAAGACTT↓AGAAAAATTTTTA-3′) was 5′-end labeled with [γ^32P] ATP and annealed with oligonucleotide 2 (5′-[…]-3′) to make a duplex oligonucleotide containing a topoisomerase I binding motif as described. Cleavage assay was carried out using 20-fold molar excess of enzymes over duplex 25-mer DNA (enzymes, 0.2 µM; DNA, 10 nM). The reactions were carried out in standard assay condition in the absence or presence of drugs at 37°C for 30 min. All the reactions were stopped by addition of SDS to a final concentration of 2% (w/v), digested with 5 µl of 1 mg/ml trypsin and analyzed by 12% denaturing polyacrylamide gel followed by autoradiography. The amount of strand cleavage in the presence of drugs was determined by densitometry of the film as described.
The effect of DIM and its derivatives on L. donovani topoisomerase I was examined by plasmid DNA cleavage assay as described. The topoisomerase reaction has three general mechanistic steps: (i) binding of enzyme to the substrate DNA, (ii) single strand breakage and subsequent strand rotation through the break leading to change in linking number, and (iii) strand religation. The second step of reaction is the introduction of a single-stranded nick in the phosphodiester bond of the DNA, through which an intact strand is allowed to pass. During this process, a covalent bond is formed between the 3′-phosphoryl group of the DNA backbone and the tyrosine residue at the active site of topoisomerase I. Topoisomerase inhibition can be achieved by prevention of enzyme-DNA binary complex formation or by stabilization of enzyme-DNA cleavable complex. To investigate the ability of DIM-derivatives to stabilize the cleavable complex formation between enzyme and oligonucleotide containing a topoisomerase IB specific binding motif we carried out plasmid cleavage assay as described previously. Cleavage assay was performed with LdTOP1LS and pHOT1 DNA containing a topoisomerase IB specific binding motif as described in ‘Materials and Methods’. […]

SMILES	inhibition at 50 µM [1]	extent of cleavage [2]
Cc1[nH]c2ccccc2c1Cc1c(C)[nH]c2ccccc12 [DMDIM, 2,2′-dimethyl 3,3′-diindolyl methane]	92%	approximately 61%
COc1ccc2[nH]cc(Cc3c[nH]c4ccc(OC)cc34)c2c1 [DMODIM, 5,5′-dimethoxy 3,3′-diindolyl methane]	79%	~56%
c1ccc(-c2[nH]c3ccccc3c2Cc2c(-c3ccccc3)[nH]c3ccccc23)cc1 [DPDIM, 2,2′-diphenyl 3,3′-diindolyl methane]	98%	67%

Source: article PMC3236199, “Development of Derivatives of 3, 3′-Diindolylmethane as Potent Leishmania donovani Bi-Subunit Topoisomerase IB Poisons” (PLoS ONE, 2011)
